# Experimental data: patent US10828315B2 (Madrigal Pharmaceuticals, Inc., priority 2013, dated 2020)
# Values joined by “and” are separate entries in the source; they are usually repeats but may differ in a detail not shown here. Identical values can stand only once.
# Assays:
# [1] = Mouse plasma stability protocol, up to 1 h (Examples 16-18)
# HER2 = HER2 degradation assay with BT-474 cell line (Example 12, FACS); format: cell-based, human
# [2] = % Remaining of parent after 1 h incubation in mouse plasma at 37° C. (10 μM)
Structure (SMILES),"% Remaining (1 h) [1, 2] [%]","% Remaining (1 h) ([1]; mouse plasma, 37° C., 10 μM) [%]","% Remaining (1 h, 37° C.) ([1]; mouse plasma, 37° C.) [%]",IC50 (HER2)
"CCNC(=O)c1nnc(-c2cc(C(C)C)c(O)cc2O)n1-c1ccc(CN2CCC(C(=O)N3CCN(C(=O)Oc4ccc5nc6c(c(CC)c5c4)Cn4c-6cc5c(c4=O)COC(=O)C5(O)CC)C(C)C3)CC2)cc1 (stereo not drawn) [SDC-TRAP-0185, 4,11-diethyl-4-hydroxy-3,14-dioxo-3,4,12,14-tetrahydro-1H-pyrano[3′,4′:6,7]indolizino[1,2-b]quinolin-9-yl 4-(1-(4-(3-(2,4-dihydroxy-5-isopropylphenyl)-5-(ethylcarbamoyl)-4H-1,2,4-triazol-4-yl)benzyl)piperidine-4-carbonyl)-2-methylpiperazine-1-carboxylate]",68.1,68.1,68.1,38 nM
"CCNC(=O)c1nnc(-c2cc(C(C)C)c(O)cc2O)n1-c1ccc(CN2CCC(C(=O)N3CCC(N(C)C(=O)Oc4ccc5nc6c(c(CC)c5c4)Cn4c-6cc5c(c4=O)COC(=O)C5(O)CC)CC3)CC2)cc1 (stereo not drawn) [SDC-TRAP-0172, 4,11-diethyl-4-hydroxy-3,14-dioxo-3,4,12,14-tetrahydro-1H-pyrano[3′,4′:6,7]indolizino[1,2-b]quinolin-9-yl (1-(1-(4-(3-(2,4-dihydroxy-5-isopropylphenyl)-5-(ethylcarbamoyl)-4H-1,2,4-triazol-4-yl)benzyl)piperidine-4-carbonyl)piperidin-4-yl)(methyl) carbamate]",74.7,74.7,74.7,< 78 nM and 56 nM
"CCNC(=O)c1nnc(-c2cc(C(C)C)c(O)cc2O)n1-c1ccc(Oc2ccc(C(=O)N3CCC(OC(=O)OC4(CC)C(=O)OCc5c4cc4n(c5=O)Cc5c-4nc4ccc(O)cc4c5CC)CC3)cc2)cc1 (stereo not drawn) [SDC-TRAP-0203, 4,11-Diethyl-9-hydroxy-3,14-dioxo-3,4,12,14-tetrahydro-1H-pyrano[3′,4′:6,7]indolizino[1,2-b]quinolin-4-yl (1-(4-(4-(3-(2,4-dihydroxy-5-isopropylphenyl)-5-(ethylcarbamoyl)-4H-1,2,4-triazol-4-yl)phenoxy)benzoyl)piperidin-4-yl) carbonate]",–,–,71.2,446 nM
"CCc1c2c(nc3ccc(O)cc13)-c1cc3c(c(=O)n1C2)COC(=O)C3(CC)OC(=O)CN1CCC(Cc2ccc(-n3c(O)nnc3-c3cc(C(C)C)c(O)cc3O)cc2)CC1 (stereo not drawn) [SDC-TRAP-0071, 4,11-diethyl-9-hydroxy-3,14-dioxo-3,4,12,14-tetrahydro-1H-pyrano[3′,4′:6,7]indolizino[1,2-b]quinolin-4-yl 2-(4-(4-(3-(2,4-dihydroxy-5-isopropylphenyl)-5-hydroxy-4H-1,2,4-triazol-4-yl)benzyl)piperidin-1-yl)acetate]",102,–,102,307 nM
"CCc1c2c(nc3ccc(OC(=O)N4CCC(Cn5ccc6cc(-n7c(O)nnc7-c7cc(C(C)C)c(O)cc7O)ccc65)CC4)cc13)-c1cc3c(c(=O)n1C2)COC(=O)C3(O)CC (stereo not drawn) [SDC-TRAP-0186, 4,11-diethyl-4-hydroxy-3,14-dioxo-3,4,12,14-tetrahydro-1H-pyrano[3′,4′:6,7]indolizino[1,2-b]quinolin-9-yl 4-((5-(3-(2,4-dihydroxy-5-isopropylphenyl)-5-hydroxy-4H-1,2,4-triazol-4-yl)-1H-indol-1-yl)methyl)piperidine-1-carboxylate]",57.9,57.9,57.9,1620 nM
"CCc1c2c(nc3ccc(OC(=O)N4CCCCC4C(=O)N4CCC(CCn5ccc6cc(-n7c(O)nnc7-c7cc(C(C)C)c(O)cc7O)ccc65)CC4)cc13)-c1cc3c(c(=O)n1C2)COC(=O)[C@]3(O)CC (stereo partly drawn) [SDC-TRAP-0215, (S)-4,11-diethyl-4-hydroxy-3,14-dioxo-3,4,12,14-tetrahydro-1H-pyrano[3′,4′:6,7]indolizino[1,2-b]quinolin-9-yl 2-(4-(2-(5-(3-(2,4-dihydroxy-5-isopropylphenyl)-5-hydroxy-4H-1,2,4-triazol-4-yl)-1H-indol-1-yl)ethyl)piperidine-1-carbonyl)piperidine-1-carboxylate]",–,–,77.2,2750 nM
"CCc1c2c(nc3ccc(O)cc13)-c1cc3c(c(=O)n1C2)COC(=O)[C@@]3(CC)OC(=O)N1CCC(CCc2ccc(-n3c(O)nnc3-c3cc(C(C)C)c(O)cc3O)cc2)CC1 [SDC-TRAP-0104, (S)-4,11-diethyl-9-hydroxy-3,14-dioxo-3,4,12,14-tetrahydro-1H-pyrano[3′,4′:6,7]indolizino[1,2-b]quinolin-4-yl 4-(4-(3-(2,4-dihydroxy-5-isopropylphenyl)-5-hydroxy-4H-1,2,4-triazol-4-yl)phenethyl)piperidine-1-carboxylate]",95.5,–,95.5,350 nM
"CCNC(=O)c1nnc(-c2cc(C(C)C)c(O)cc2O)n1-c1ccc(OC2CCN(C(=O)C3CCN(C(=O)Oc4ccc5nc6c(c(CC)c5c4)Cn4c-6cc5c(c4=O)COC(=O)[C@]5(O)CC)C(C)C3)CC2)cc1 (stereo partly drawn) [SDC-TRAP-0213, (S)-4,11-diethyl-4-hydroxy-3,14-dioxo-3,4,12,14-tetrahydro-1H-pyrano[3′,4′:6,7]indolizino[1,2-b]quinolin-9-yl 4-(4-(4-(3-(2,4-dihydroxy-5-isopropylphenyl)-5-(ethylcarbamoyl)-4H-1,2,4-triazol-4-yl)phenoxy)piperidine-1-carbonyl)-2-methylpiperidine-1-carboxylate]",74.7,–,74.7,248 nM
"CCNC(=O)c1nnc(-c2cc(C(C)C)c(O)cc2O)n1-c1ccc(Oc2ccc(C(=O)N3CCC(C(=O)OC4(CC)C(=O)OCc5c4cc4n(c5=O)Cc5cc6c(CN(C)C)c(O)ccc6nc5-4)CC3)cc2)cc1 (stereo not drawn) [SDC-TRAP-0159, 10-((dimethylamino)methyl)-4-ethyl-9-hydroxy-3,14-dioxo-3,4,12,14-tetrahydro-1H-pyrano[3′,4′:6,7]indolizino[1,2-b]quinolin-4-yl-1-(4-(4-(3-(2,4-dihydroxy-5-isopropylphenyl)-5-(ethylcarbamoyl)-4H-1,2,4-triazol-4-yl)phenoxy)benzoyl)piperidine-4-carboxylate]",121,–,–,> 1000 nM
"CCNC(=O)c1nnc(-c2cc(C(C)C)c(O)cc2O)n1-c1ccc(OC2CCN(C(=O)CN(C)C(=O)Oc3ccc4nc5c(c(CC)c4c3)Cn3c-5cc4c(c3=O)COC(=O)[C@]4(O)CC)CC2)cc1 [SDC-TRAP-0206, (S)-4,11-diethyl-4-hydroxy-3,14-dioxo-3,4,12,14-tetrahydro-1H-pyrano[3′,4′:6,7]indolizino[1,2-b]quinolin-9-yl (2-(4-(4-(3-(2,4-dihydroxy-5-isopropylphenyl)-5-(ethylcarbamoyl)-4H-1,2,4-triazol-4-yl)phenoxy)piperidin-1-yl)-2-oxoethyl)(methyl)carbamate]",68.6,–,68.6,321 nM
"CCc1c2c(nc3ccc(OC(=O)N4CCN(Cc5ccc(-n6c(O)nnc6-c6cc(C(C)C)c(O)cc6O)cc5)CC4C)cc13)-c1cc3c(c(=O)n1C2)COC(=O)C3(O)CC (stereo not drawn) [SDC-TRAP-0220, 4,11-diethyl-4-hydroxy-3,14-dioxo-3,4,12,14-tetrahydro-1H-pyrano[3′,4′:6,7]indolizino[1,2-b]quinolin-9-yl 4-(4-(3-(2,4-dihydroxy-5-isopropylphenyl)-5-hydroxy-4H-1,2,4-triazol-4-yl)benzyl)-2-methylpiperazine-1-carboxylate]",–,–,78.3,474 nM and 445 nM
"Cc1cc(COC(=O)Nc2cccc3c2CN(C2CCC(=O)NC2=O)C3=O)cc(C)c1OC(=O)N1CCN(Cc2ccc(-n3c(O)nnc3-c3cc(C(C)C)c(O)cc3O)cc2F)CC1 (stereo not drawn) [SDC-TRAP-0182, 4-((((2-(2,6-dioxopiperidin-3-yl)-1-oxoisoindolin-4-yl)carbamoyl)oxy)methyl)-2,6-dimethylphenyl 4-(4-(3-(2,4-dihydroxy-5-isopropylphenyl)-5-hydroxy-4H-1,2,4-triazol-4-yl)-2-fluorobenzyl)piperazine-1-carboxylate]",91.9,–,–,359 nM
"CCNC(=O)c1nnc(-c2cc(C(C)C)c(O)cc2O)n1-c1ccc(Oc2ccc(C(=O)N3CCC(N(C)C(=O)Oc4ccc5nc6c(c(CC)c5c4)Cn4c-6cc5c(c4=O)COC(=O)C5(O)CC)CC3)cc2)cc1 (stereo not drawn) [SDC-TRAP-0180, 4,11-Diethyl-4-hydroxy-3,14-dioxo-3,4,12,14-tetrahydro-1H-pyrano[3′,4′:6,7]indolizino[1,2-b]quinolin-9-yl (1-(4-(4-(3-(2,4-dihydroxy-5-isopropylphenyl)-5-(ethylcarbamoyl)-4H-1,2,4-triazol-4-yl)phenoxy)benzoyl)piperidin-4-yl)(methyl)carbamate]",72.4,72.4,72.4,325 nM
"CCc1c2c(nc3ccc(OC(=O)N(C)C4CCN(C(=O)CCn5ccc6cc(-n7c(O)nnc7-c7cc(C(C)C)c(O)cc7O)ccc65)CC4)cc13)-c1cc3c(c(=O)n1C2)COC(=O)C3(O)CC (stereo not drawn) [SDC-TRAP-0184, 4,11-diethyl-4-hydroxy-3,14-dioxo-3,4,12,14-tetrahydro-1H-pyrano[3′,4′:6,7]indolizino[1,2-b]quinolin-9-yl (1-(3-(5-(3-(2,4-dihydroxy-5-isopropylphenyl)-5-hydroxy-4H-1,2,4-triazol-4-yl)-1H-indol-1-yl)propanoyl)piperidin-4-yl)(methyl)carbamate]",18.0,18.0,18.0,4000 nM
